Here are results for 2 substances from article PMC4210897, “Antimicrobial Activity of Peptides Derived from Olive Flounder Lipopolysaccharide Binding Protein/Bactericidal Permeability-Increasing Protein (LBP/BPI)” (Marine Drugs, 2014).

Where no end group is shown, it is not given here.

In one test the test system is E. coli ML35p. In words: Killing kinetic assay. Conditions: 10^6 CFU/mL, 37 °C; for Time to kill E. coli ML35p at 5× MEC: triplicate averaged. In kind it is cell-based, Escherichia coli. The protocol:
To determine the killing activities of ofLBP-derived analogs, kinetic studies were performed using B. subtilis KCTC1021 and E. coli ML35p at 1× MEC and 5× MEC concentrations. Overnight culture of B. subtilis KCTC1021 and E. coli ML35p were diluted in TBS to a cell density of 10^6 CFU/mL and 1 mL of each suspension was exposed to each ofLBP-derived analog and incubated at 37 °C overnight. The resulting colonies were counted. Percent killing was calculated as the proportion of live bacteria at a given time point following the addition of peptide compared to the number of bacteria present prior to the addition of peptide. Control cultures of each bacterium were incubated without any peptide and assayed at time points corresponding to the test culture assays to ensure no spontaneous loss of viability. Killing kinetic assays were also performed in triplicate, and the results were averaged.

The nature of test [1]: Calcein leakage assay, neutral liposomes. Conditions: DOPC LUVs 95 µM, 20 mM TES pH 7.4, 25 °C, 3 min, peptide 20 μM. The protocol: (§1) For leakage experiments, large unilamellar vesicles (LUVs) (DOPC or DOPC-DOPG, 3:1) with encapsulated calcein were prepared using the extrusion method. The desired mixtures of phospholipids were dried in glass tubes under nitrogen and then lyophilized overnight to obtain lipid films. The dry lipid films were suspended in leakage buffer (20 mM TES buffer containing 150 mM NaCl, pH 7.4) and 70 mM calcein, and then vortexed occasionally to disperse the lipids. The suspension was freeze–thawed in liquid nitrogen for 10 cycles and extruded 10 times through 0.1-μm polycarbonate membrane filters in an Avanti mini extruder apparatus (Avanti Polar Lipids, Inc., Alabaster, AL, USA). […]
(§2) Leakage of calcein from liposomes was determined as described by Park et al.. […] The increase in the fluorescence of calcein when leaking out of liposomes was monitored at an emission wavelength of 520 nm and an excitation wavelength at 490 nm. The change in fluorescence intensity was measured for 3 min after peptide addition. […] The percentage of dye release was calculated as follows: Dye leakage (%) = 100 × (F − F0)/(Ft − F0) Where F is the fluorescence intensity caused by the peptide and F0 and Ft are those with buffer alone and with 10% Triton X-100, respectively.

Test [2] is described as follows: Calcein leakage assay, acidic liposomes. Conditions: DOPC/DOPG (3:1) LUVs 95 µM, 20 mM TES pH 7.4, 25 °C, 3 min, peptide 20 μM. The protocol:
as §1, §2

As for MKLVKTWLKVLK-NH2 [ofLBP 6A], in the test on E. coli ML35p, the “Killing of E. coli ML35p at 1× MEC” value was “did not kill” and the “Time to kill E. coli ML35p at 5× MEC” value is recorded as not above 60 min.

Take Piscidin 1 [reference compound]: in the test on E. coli ML35p, the “Killing of E. coli ML35p at 1× MEC” value was “did not kill” and the “Time to kill E. coli ML35p at 5× MEC” value is given as not above 40 min. Also, the “Leakage of entrapped calcein from neutral liposomes at 20 μM” value in test [1] is on record as “complete leakage”. Also, the “Leakage of entrapped calcein from acidic liposomes at 20 μM” value in test [2] was “complete leakage”.
